Laboratory results taken from patent US7915416B2, “Tetrahydroquinolines” (Merck Patent GmbH, priority 2004, dated 2011).

Test system: cells
Test: cell cycle experiments (G2/M)
Type: cell-based

## N=C(N)c1ccc(OCCCCCOc2ccc(C(=N)N)cc2)cc1 [pentamidine]
  effect on cell cycle: maintain cells in the G2/M cell cycle
